Test results from ChEMBL document CHEMBL1201862, “PubChem BioAssay data set” (2004).
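1) Cells in 96-well plates. 2) Compound, 48 h, 5 concentrations. 3) Linear interpolation between surrounding doses. 4) Unreached endpoint = highest concentration. The concentration for 50% growth inhibition is given as GI50.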 Calls of active or inactive are those of the source. Cut-off read from the data, not from the text of the source: active = GI50 up to about 1.1 µM and inactive = higher.

Key:
Test in all cases: NCI anticancer screen, dose series, 48 h
[1] = test system: SW-620
[2] = test system: OVCAR-3
[3] = test system: NCI-H226
[4] = test system: SF-295
[5] = test system: SK-MEL-2
[6] = test system: HOP-92
[7] = test system: NCI-H522
[8] = test system: Hs-578T
[9] = test system: COLO 205
[10] = test system: SK-OV-3
[11] = test system: NCI/ADR-RES
[12] = test system: MDA-MB-435
[13] = test system: SF-539
[14] = test system: TK-10
[15] = test system: MOLT-4
[16] = test system: HCT-116
[17] = test system: UO-31
[18] = test system: HCC 2998
[19] = test system: A549
[20] = test system: HOP-62
[21] = test system: DU-145
[22] = test system: KM12
[23] = test system: MCF7
[24] = test system: PC-3
[25] = test system: SN12C
[26] = test system: UACC-62
[27] = test system: U-251
[28] = test system: T47D
[29] = test system: OVCAR-5
[30] = test system: SK-MEL-28
[31] = test system: SNB-75
[32] = test system: BT-549
[33] = test system: HL-60
[34] = test system: NCI-H23
[35] = test system: ACHN
[36] = test system: K562
[37] = test system: HT-29
[38] = test system: A498
[39] = test system: EKVX
[40] = test system: RXF 393
[41] = test system: UACC-257
[42] = test system: OVCAR-4
[43] = test system: IGROV-1
[44] = test system: CCRF-CEM
[45] = test system: OVCAR-8
[46] = test system: LOX IMVI
[47] = test system: CAKI-1
[48] = test system: Malme-3M
[49] = test system: SR
[50] = test system: RPMI-8226
[51] = test system: MDA-MB-231
[52] = test system: M14
[53] = test system: HCT-15
[54] = test system: SK-MEL-5
[55] = test system: SF-268
[56] = test system: MDA-N
[57] = test system: SNB-19
[58] = test system: 786-0
[59] = test system: NCI-H460

Cc1ccc(C(=O)Nc2ccc(CP(=O)(O)O)cc2CP(=O)(O)O)cc1N
GI50 [1]: > 100 µM (inactive)
GI50 [2]: > 100 µM (inactive)
GI50 [3]: > 100 µM (inactive)
GI50 [4]: > 100 µM (inactive)
GI50 [5]: > 100 µM (inactive)
GI50 [6]: > 100 µM (inactive)
GI50 [7]: > 100 µM (inactive)
GI50 [8]: > 100 µM (inactive)
GI50 [9]: > 100 µM (inactive)
GI50 [10]: > 100 µM (inactive)
GI50 [11]: > 100 µM (inactive)
GI50 [12]: > 100 µM (inactive)
GI50 [13]: > 100 µM (inactive)
GI50 [14]: > 100 µM (inactive)
GI50 [15]: > 100 µM (inactive)
GI50 [16]: > 100 µM (inactive)
GI50 [17]: > 100 µM (inactive)
GI50 [18]: > 100 µM (inactive)
GI50 [19]: > 100 µM (inactive)
GI50 [20]: > 100 µM (inactive)
GI50 [21]: > 100 µM (inactive)
GI50 [22]: > 100 µM (inactive)
GI50 [23]: > 100 µM (inactive)
GI50 [24]: > 100 µM (inactive)
GI50 [25]: > 100 µM (inactive)
GI50 [26]: > 100 µM (inactive)
GI50 [27]: > 100 µM (inactive)
GI50 [28]: > 100 µM (inactive)
GI50 [29]: > 100 µM (inactive)
GI50 [30]: > 100 µM (inactive)
GI50 [31]: > 100 µM (inactive)
GI50 [32]: > 100 µM (inactive)
GI50 [33]: > 100 µM (inactive)
GI50 [34]: > 100 µM (inactive)
GI50 [35]: > 100 µM (inactive)
GI50 [36]: > 100 µM (inactive)
GI50 [37]: > 100 µM (inactive)
GI50 [38]: > 100 µM (inactive)
GI50 [39]: > 100 µM (inactive)
GI50 [40]: > 100 µM (inactive)
GI50 [41]: > 100 µM (inactive)
GI50 [42]: > 100 µM (inactive)
GI50 [43]: > 100 µM (inactive)
GI50 [44]: > 100 µM (inactive)
GI50 [45]: > 100 µM (inactive)
GI50 [46]: > 100 µM (inactive)
GI50 [47]: > 100 µM (inactive)
GI50 [48]: > 100 µM (inactive)
GI50 [49]: > 100 µM (inactive)
GI50 [50]: > 100 µM (inactive)
GI50 [51]: > 100 µM (inactive)
GI50 [52]: > 100 µM (inactive)
GI50 [53]: > 100 µM
GI50 [54]: > 100 µM (inactive)
GI50 [55]: > 100 µM (inactive)
GI50 [56]: > 100 µM (inactive)
GI50 [57]: > 100 µM (inactive)
GI50 [58]: > 100 µM (inactive)

CCCCN1CSC(=S)N(Cc2ccccc2)C1
GI50 [1]: 37.8 µM (inactive)
GI50 [2]: 33.7 µM (inactive)
GI50 [3]: > 68.5 µM (inactive)
GI50 [4]: 48.1 µM (inactive)
GI50 [5]: > 59.3 µM (inactive)
GI50 [6]: > 75.9 µM (inactive)
GI50 [7]: 23.9 µM (inactive)
GI50 [8]: > 70.3 µM (inactive)
GI50 [9]: 23.2 µM (inactive)
GI50 [10]: > 100 µM (inactive)
GI50 [11]: 54.3 µM (inactive)
GI50 [12]: 38.2 µM (inactive)
GI50 [13]: > 100 µM (inactive)
GI50 [14]: 28.4 µM (inactive)
GI50 [15]: 25.6 µM (inactive)
GI50 [16]: 35.4 µM (inactive)
GI50 [17]: > 100 µM (inactive)
GI50 [19]: 48 µM (inactive)
GI50 [20]: > 100 µM (inactive)
GI50 [21]: 69.3 µM (inactive)
GI50 [22]: 31.1 µM (inactive)
GI50 [23]: 31.3 µM (inactive)
GI50 [24]: 63.5 µM (inactive)
GI50 [25]: > 71 µM (inactive)
GI50 [26]: 41.2 µM (inactive)
GI50 [27]: 44.6 µM (inactive)
GI50 [28]: 34.8 µM (inactive)
GI50 [29]: > 100 µM (inactive)
GI50 [30]: > 100 µM (inactive)
GI50 [59]: 31.9 µM (inactive)
GI50 [31]: 33.7 µM (inactive)
GI50 [32]: > 84.9 µM (inactive)
GI50 [33]: 3.56 µM (inactive)
GI50 [34]: 42.6 µM (inactive)
GI50 [35]: > 100 µM (inactive)
GI50 [36]: 31.8 µM (inactive)
GI50 [37]: 58.6 µM (inactive)
GI50 [38]: > 62.1 µM (inactive)
GI50 [39]: 30 µM (inactive)
GI50 [40]: 48 µM (inactive)
GI50 [41]: 20.9 µM (inactive)
GI50 [42]: 56.8 µM (inactive)
GI50 [43]: 82.2 µM (inactive)
GI50 [44]: 4.47 µM (inactive)
GI50 [45]: 66.4 µM (inactive)
GI50 [46]: 36.9 µM (inactive)
GI50 [47]: > 100 µM (inactive)
GI50 [48]: 36.8 µM (inactive)
GI50 [49]: 31.7 µM (inactive)
GI50 [50]: 24.9 µM (inactive)
GI50 [51]: > 100 µM (inactive)
GI50 [52]: > 82.8 µM (inactive)
GI50 [53]: 58.2 µM
GI50 [54]: 23.4 µM (inactive)
GI50 [55]: 49.7 µM (inactive)
GI50 [56]: 37.6 µM (inactive)
GI50 [57]: 66.4 µM (inactive)
GI50 [58]: 34.4 µM (inactive)

O=[N+]([O-])/C=C/c1cc(Cl)c(/C=C/[N+](=O)[O-])cc1Cl
GI50 [1]: 1.03 µM (active)
GI50 [2]: 1.97 µM (inactive)
GI50 [3]: 2.06 µM (inactive)
GI50 [4]: 4.68 µM (inactive)
GI50 [5]: 3.25 µM (inactive)
GI50 [6]: 2.55 µM (inactive)
GI50 [7]: 0.975 µM (active)
GI50 [8]: 2.91 µM (inactive)
GI50 [9]: 1.95 µM (inactive)
GI50 [10]: 35.6 µM (inactive)
GI50 [11]: 2.79 µM (inactive)
GI50 [12]: 1.82 µM (inactive)
GI50 [13]: 1.86 µM (inactive)
GI50 [14]: 2.12 µM (inactive)
GI50 [15]: 0.434 µM (active)
GI50 [16]: 1.12 µM (active)
GI50 [17]: 1.49 µM (inactive)
GI50 [18]: 1.53 µM (inactive)
GI50 [19]: 4.63 µM (inactive)
GI50 [20]: 3.77 µM (inactive)
GI50 [21]: 2.51 µM (inactive)
GI50 [22]: 3.03 µM (inactive)
GI50 [23]: 2.89 µM (inactive)
GI50 [24]: 2.55 µM (inactive)
GI50 [25]: 1.8 µM (inactive)
GI50 [26]: 1.91 µM (inactive)
GI50 [27]: 1.63 µM (inactive)
GI50 [28]: 2.03 µM (inactive)
GI50 [29]: 1.52 µM (inactive)
GI50 [30]: 1.68 µM (inactive)
GI50 [59]: 19.4 µM (inactive)
GI50 [31]: 13.8 µM (inactive)
GI50 [32]: 1.57 µM (inactive)
GI50 [33]: 0.205 µM (active)
GI50 [34]: 2.61 µM (inactive)
GI50 [35]: 1.57 µM (inactive)
GI50 [37]: 2.5 µM (inactive)
GI50 [38]: 5.89 µM (inactive)
GI50 [39]: 1.91 µM (inactive)
GI50 [40]: 1.46 µM (inactive)
GI50 [41]: 1.89 µM (inactive)
GI50 [42]: 1.87 µM (inactive)
GI50 [43]: 3.29 µM (inactive)
GI50 [44]: 0.8 µM (active)
GI50 [45]: 1.61 µM (inactive)
GI50 [46]: 1.53 µM (inactive)
GI50 [47]: 1.89 µM (inactive)
GI50 [48]: 1.91 µM (inactive)
GI50 [49]: 0.225 µM (active)
GI50 [50]: 1.25 µM (inactive)
GI50 [51]: 1.86 µM (inactive)
GI50 [52]: 1.87 µM (inactive)
GI50 [53]: 1.01 µM
GI50 [54]: 3.53 µM (inactive)
GI50 [55]: 2.66 µM (inactive)
GI50 [56]: 2.27 µM (inactive)
GI50 [57]: 2.37 µM (inactive)
GI50 [58]: 1.16 µM (inactive)

CC(=O)Nc1ccc2c3c(cc(O)c2c1)N(C(=O)CCCC(=O)Nc1ccc2c4c(cc(O)c2c1)N(C(=O)OC(C)(C)C)CC4CCl)CC3CCl (configuration not stated)
GI50 [1]: 1.82 µM (inactive)
GI50 [2]: 1.1 µM (active)
GI50 [4]: 13.4 µM (inactive)
GI50 [5]: 0.955 µM (active)
GI50 [6]: 2.01 µM (inactive)
GI50 [7]: 0.371 µM (active)
GI50 [8]: 1.55 µM (inactive)
GI50 [9]: 1.22 µM (inactive)
GI50 [10]: 1.62 µM (inactive)
GI50 [11]: > 50 µM (inactive)
GI50 [12]: 0.938 µM (active)
GI50 [13]: 1.42 µM (inactive)
GI50 [14]: 7.6 µM (inactive)
GI50 [15]: 0.0815 µM (active)
GI50 [16]: 0.851 µM (active)
GI50 [17]: > 38.5 µM (inactive)
GI50 [18]: 0.771 µM (active)
GI50 [19]: 9.4 µM (inactive)
GI50 [20]: 2.01 µM (inactive)
GI50 [21]: 0.769 µM (active)
GI50 [22]: 2.26 µM (inactive)
GI50 [23]: 0.225 µM (active)
GI50 [24]: 1.27 µM (inactive)
GI50 [25]: 1.57 µM (inactive)
GI50 [26]: 0.998 µM (active)
GI50 [27]: 0.841 µM (active)
GI50 [28]: 0.418 µM (active)
GI50 [29]: 2.3 µM (inactive)
GI50 [30]: 1.91 µM (inactive)
GI50 [59]: 1.48 µM (inactive)
GI50 [31]: 1.99 µM (inactive)
GI50 [32]: 0.881 µM (active)
GI50 [33]: 0.118 µM (active)
GI50 [34]: 1.42 µM (inactive)
GI50 [35]: 5.22 µM (inactive)
GI50 [36]: 1.22 µM (inactive)
GI50 [37]: 1.19 µM (inactive)
GI50 [38]: 1.02 µM (active)
GI50 [39]: 5.24 µM (inactive)
GI50 [40]: 2.58 µM (inactive)
GI50 [41]: 1.04 µM (active)
GI50 [42]: 1.44 µM (inactive)
GI50 [43]: 1.05 µM (active)
GI50 [44]: 0.108 µM (active)
GI50 [45]: 1.94 µM (inactive)
GI50 [46]: 0.904 µM (active)
GI50 [47]: > 50 µM (inactive)
GI50 [48]: 0.78 µM (active)
GI50 [49]: 0.0221 µM (active)
GI50 [50]: 5.69 µM (inactive)
GI50 [51]: 1.47 µM (inactive)
GI50 [52]: 3.22 µM (inactive)
GI50 [53]: > 50 µM
GI50 [54]: 1.1 µM (active)
GI50 [55]: 0.195 µM (active)
GI50 [56]: 1.05 µM (active)
GI50 [57]: 1.24 µM (inactive)
GI50 [58]: 1.23 µM (inactive)
